Assay results from the supplement of paper PMC10307832.

compound: CC1=CC(=CC=C1)NC2=NC(=CS2)C3=CC=NC=C3 + Nc1nc2[nH]cc(CCc3ccc(C(=O)N[C@@H](CCC(=O)O)C(=O)O)cc3)c2c(=O)[nH]1 [Pemetrexed] (partner 0.2 µM); assay: relative viability (nuclei count vs DMSO), 5 days (fraction); higher = more cells survive; details: first compound 8 µM
Procedure, shortened: (§1)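 Relative viability equals treated-well nuclei counts divided by vehicle-well nuclei counts. Counts came from 4× images of lung cancer cell lines grown in 1536-well plates for 5 days after pin-tool dosing on the day after seeding. Dosing used one drug alone or a fixed anchor-drug dose plus five library-drug doses (not always all listed) in √10 steps, and values are medians of duplicate plates.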

Cell Line | relative viability
NCI-H1792 | 0.784
NCI-H1944 | 0.476
NCI-H2170 | 0.264
SK-MES-1 | 0.862

compound: Cc1ccc(NC(=O)c2ccc(CN3CCN(C)CC3)cc2)cc1Nc1nc(-c2cccnc2)cs1 [Masitinib] + CC(C)C[C@H](NC(=O)[C@H](Cc1ccccc1)NC(=O)c1cnccn1)B(O)O [Bortezomib] (partner 0.002 µM); assay: as above; details: first compound 0.01 µM
Procedure, shortened: as §1

Cell Line | relative viability
NCI-H838 | 0.793
NCI-H1651 | 0.891
EBC-1 | 0.493
NCI-H1734 | 0.899
NCI-H2009 | 0.666
LU99A | 1.03
PC-14 | 0.786
LCLC-103H | 0.821
NCI-H596 | 1.09
NCI-H2228 | 1.07
EMC-BAC-2 | 0.942
NCI-H2087 | 0.544
Calu-6 | 0.903
HCC-366 | 1.04
NCI-H1703 | 0.29
NCI-H647 | 1.03
NCI-H2126 | 1.05
COR-L23 | 0.924
COR-L 105 | 0.695
IA-LM | 0.85
LOU-NH91 | 0.481
ChaGo-K-1 | 1.04
HCC-44 | 0.765
NCI-H727 | 0.846
NCI-H1299 | 0.985
NCI-H1563 | 0.778
NCI-H1792 | 0.759
ABC-1 | 0.324

same assay, conditions: first compound 0.03162 µM

Cell Line | relative viability
NCI-H838 | 0.83
NCI-H1651 | 0.941
EBC-1 | 0.518
NCI-H1734 | 0.772
NCI-H2009 | 1.1
LU99A | 1.12
PC-14 | 0.878
LCLC-103H | 1.23
NCI-H596 | 1.06
NCI-H2228 | 1.68
EMC-BAC-2 | 1.04
NCI-H2087 | 0.741
Calu-6 | 1.04
HCC-366 | 0.905
NCI-H1703 | 0.246
NCI-H647 | 0.768
NCI-H2126 | 1.17
H3255 | 0.858
COR-L23 | 0.806
COR-L 105 | 0.699
IA-LM | 0.975
LOU-NH91 | 0.468
ChaGo-K-1 | 1.05
HCC-44 | 0.778
NCI-H727 | 0.847
NCI-H1299 | 1.05
NCI-H1563 | 0.789
NCI-H1792 | 0.387
ABC-1 | 0.296

same assay, conditions: first compound 0.1 µM

Cell Line | relative viability
NCI-H838 | 0.965
NCI-H1651 | 0.927
EBC-1 | 0.514
NCI-H1734 | 1.01
NCI-H2009 | 0.887
LU99A | 1.02
PC-14 | 0.857
LCLC-103H | 1.02
NCI-H596 | 1.2
NCI-H2228 | 1.05
EMC-BAC-2 | 0.974
NCI-H2087 | 0.756
Calu-6 | 1.07
HCC-366 | 1.08
NCI-H1703 | 0.229
NCI-H647 | 1.1
NCI-H2126 | 1.1
H3255 | 0.601
COR-L23 | 1.11
COR-L 105 | 0.823
IA-LM | 0.836
LOU-NH91 | 0.506
ChaGo-K-1 | 1.35
HCC-44 | 0.854
NCI-H727 | 1.02
NCI-H1299 | 0.995
NCI-H1563 | 0.905
NCI-H1792 | 0.945
ABC-1 | 0.287

same assay, conditions: first compound 0.3162 µM

Cell Line | relative viability
NCI-H838 | 0.758
NCI-H1651 | 0.983
EBC-1 | 0.479
NCI-H1734 | 0.949
NCI-H2009 | 0.894
LU99A | 1.21
PC-14 | 0.84
LCLC-103H | 0.948
NCI-H596 | 1.01
NCI-H2228 | 1.25
EMC-BAC-2 | 1.15
NCI-H2087 | 0.958
Calu-6 | 0.774
HCC-366 | 1.01
NCI-H1703 | 0.269
NCI-H647 | 1.05
NCI-H2126 | 1.03
H3255 | 0.459
COR-L23 | 1.26
COR-L 105 | 0.823
IA-LM | 0.681
LOU-NH91 | 0.492
ChaGo-K-1 | 1.12
HCC-44 | 0.773
NCI-H727 | 1.04
NCI-H1299 | 1.01
NCI-H1563 | 0.81
NCI-H1792 | 0.994
ABC-1 | 0.306

same assay, conditions: first compound 1 µM

Cell Line | relative viability
NCI-H838 | 0.69
NCI-H1651 | 0.944
EBC-1 | 0.573
NCI-H1734 | 0.853
NCI-H2009 | 0.939
LU99A | 1.07
PC-14 | 0.846
LCLC-103H | 0.994
NCI-H596 | 1.23
NCI-H2228 | 0.975
EMC-BAC-2 | 1.05
NCI-H2087 | 0.779
Calu-6 | 0.876
HCC-366 | 1.14
NCI-H1703 | 0.174
NCI-H647 | 1.09
NCI-H2126 | 1.11
H3255 | 0.755
COR-L23 | 0.972
COR-L 105 | 0.725
IA-LM | 1.05
LOU-NH91 | 0.49
ChaGo-K-1 | 0.962
HCC-44 | 0.857
NCI-H727 | 0.744
NCI-H1299 | 1
NCI-H1563 | 0.713
NCI-H1792 | 1.01
ABC-1 | 0.256

compound: Cc1ccc(NC(=O)c2ccc(CN3CCN(C)CC3)cc2)cc1Nc1nc(-c2cccnc2)cs1 [Masitinib] + Cc1nc(Nc2ncc(C(=O)Nc3c(C)cccc3Cl)s2)cc(N2CCN(CCO)CC2)n1 [Dasatinib] (partner 0.075 µM); assay: as above; details: first compound 0.01 µM
Procedure, shortened: as §1

Cell Line | relative viability
NCI-H522 | 0.818
NCI-H1623 | 0.488
NCI-H838 | 0.304
NCI-H1651 | 0.403
NCI-H1734 | 0.449
NCI-H2009 | 0.291
LU99A | 0.583
PC-14 | 0.266
LCLC-103H | 0.41
NCI-H596 | 0.594
NCI-H2228 | 0.544
